Experimental data: article PMC8757608 (Journal of Enzyme Inhibition and Medicinal Chemistry, 2022)

How the values were obtained:
[1] = system: K-562 (leukemia); experiment: NCI-60 single dose screen, K-562; type: cell-based; conditions: Homo sapiens, K562, read-out: percent growth inhibition
[2] = system: HL60(TB) (leukemia); experiment: NCI-60 single dose screen, HL60; type: cell-based; conditions: Homo sapiens, HL-60, read-out: percent growth inhibition

Work on `Cc1cc(=O)[nH]c(=O)n1Cc1cn(-c2c3ccccc3nc3ccccc23)nn1` [Compound 8, 1-((1-(Acridin-9-yl)-1H-1,2,3-triazol-4-yl)methyl)-6-methylpyrimidine-2,4(1H,3H)-dione] yielded an inhibition at 10 µM [1] of 83.7% and an inhibition at 10 µM [2] of 92.9%.
